Experiments:
Test in all cases: Tyrosine kinase inhibition assay
Format in all cases: biochemical
Conditions in all cases: single concentration 1.0 μM, read-out: percent inhibition
EPHA1 = target: T1, EPHA1 (Homo sapiens, UniProt P21709)
T1 sequence (P21709 26-976): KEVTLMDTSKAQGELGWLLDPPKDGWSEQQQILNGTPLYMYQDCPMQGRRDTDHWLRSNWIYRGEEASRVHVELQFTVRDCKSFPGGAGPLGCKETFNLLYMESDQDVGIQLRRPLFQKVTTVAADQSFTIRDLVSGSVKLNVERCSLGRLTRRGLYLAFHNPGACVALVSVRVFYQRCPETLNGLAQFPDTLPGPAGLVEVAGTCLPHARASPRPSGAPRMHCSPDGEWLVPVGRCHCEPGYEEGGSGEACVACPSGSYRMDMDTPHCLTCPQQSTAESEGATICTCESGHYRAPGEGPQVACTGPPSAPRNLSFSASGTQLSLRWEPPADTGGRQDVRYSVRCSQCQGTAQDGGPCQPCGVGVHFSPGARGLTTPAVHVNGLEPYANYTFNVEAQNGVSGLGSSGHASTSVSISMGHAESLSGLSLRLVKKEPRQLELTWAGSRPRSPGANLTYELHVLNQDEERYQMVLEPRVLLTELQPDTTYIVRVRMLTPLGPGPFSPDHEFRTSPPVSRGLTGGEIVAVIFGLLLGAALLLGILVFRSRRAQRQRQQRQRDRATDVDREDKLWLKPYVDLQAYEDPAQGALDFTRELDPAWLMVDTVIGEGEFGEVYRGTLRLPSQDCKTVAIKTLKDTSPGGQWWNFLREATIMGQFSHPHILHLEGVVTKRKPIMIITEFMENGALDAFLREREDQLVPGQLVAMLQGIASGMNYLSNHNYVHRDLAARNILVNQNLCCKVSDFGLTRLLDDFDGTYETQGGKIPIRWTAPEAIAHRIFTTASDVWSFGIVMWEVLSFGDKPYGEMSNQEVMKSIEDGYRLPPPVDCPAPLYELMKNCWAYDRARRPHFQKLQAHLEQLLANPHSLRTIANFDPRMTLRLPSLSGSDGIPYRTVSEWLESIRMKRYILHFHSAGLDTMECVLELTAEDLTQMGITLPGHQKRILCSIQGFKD
Outline: (§1)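 Single-point screen, 1.0 μM compound, 1% DMSO final; ATP at apparent Km. Buffer: 50 mM HEPES pH 7.5, 0.01% BRIJ-35, 10 mM MgCl2, 1 mM EGTA. Z′-LYTE readout, % inhibition; hit = >80%.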

FGFR4 = FGFR4 (Homo sapiens, UniProt P22455)
Outline: as §1

ITK = target: T2, ITK (Homo sapiens, UniProt Q08881)
T2 sequence (Q08881 1-620): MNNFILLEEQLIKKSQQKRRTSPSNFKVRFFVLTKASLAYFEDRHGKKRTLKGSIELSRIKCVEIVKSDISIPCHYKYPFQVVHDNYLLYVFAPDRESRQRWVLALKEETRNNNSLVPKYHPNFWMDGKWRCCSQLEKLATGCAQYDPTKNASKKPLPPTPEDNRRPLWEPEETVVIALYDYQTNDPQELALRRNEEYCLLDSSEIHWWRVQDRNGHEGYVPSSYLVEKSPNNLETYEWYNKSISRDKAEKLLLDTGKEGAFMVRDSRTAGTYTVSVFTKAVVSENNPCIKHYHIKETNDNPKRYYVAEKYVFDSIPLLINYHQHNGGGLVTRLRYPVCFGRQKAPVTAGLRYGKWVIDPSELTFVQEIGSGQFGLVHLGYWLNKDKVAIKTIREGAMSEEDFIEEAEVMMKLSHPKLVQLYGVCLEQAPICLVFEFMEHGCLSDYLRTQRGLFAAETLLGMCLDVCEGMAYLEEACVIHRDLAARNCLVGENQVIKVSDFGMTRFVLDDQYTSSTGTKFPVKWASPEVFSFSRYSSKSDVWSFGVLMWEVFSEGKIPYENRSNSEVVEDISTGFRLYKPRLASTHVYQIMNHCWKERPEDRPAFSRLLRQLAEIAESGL
Outline: as §1

AURKC (Aurora C) = target: T3, AURKC (Aurora C) (Homo sapiens, UniProt Q9UQB9)
T3 sequence (Q9UQB9 1-309): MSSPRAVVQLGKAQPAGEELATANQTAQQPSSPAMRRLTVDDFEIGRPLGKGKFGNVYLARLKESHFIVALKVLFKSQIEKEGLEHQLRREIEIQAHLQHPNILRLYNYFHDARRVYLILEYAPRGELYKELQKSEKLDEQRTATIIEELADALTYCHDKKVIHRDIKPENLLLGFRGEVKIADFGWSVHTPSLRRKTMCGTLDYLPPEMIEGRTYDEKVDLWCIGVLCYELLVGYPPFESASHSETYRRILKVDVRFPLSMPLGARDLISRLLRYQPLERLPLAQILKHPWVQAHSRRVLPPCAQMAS
Outline: as §1

CSK = CSK (Homo sapiens, UniProt P41240)
Outline: as §1

Sequence of FGFR4 (P22455 22-802): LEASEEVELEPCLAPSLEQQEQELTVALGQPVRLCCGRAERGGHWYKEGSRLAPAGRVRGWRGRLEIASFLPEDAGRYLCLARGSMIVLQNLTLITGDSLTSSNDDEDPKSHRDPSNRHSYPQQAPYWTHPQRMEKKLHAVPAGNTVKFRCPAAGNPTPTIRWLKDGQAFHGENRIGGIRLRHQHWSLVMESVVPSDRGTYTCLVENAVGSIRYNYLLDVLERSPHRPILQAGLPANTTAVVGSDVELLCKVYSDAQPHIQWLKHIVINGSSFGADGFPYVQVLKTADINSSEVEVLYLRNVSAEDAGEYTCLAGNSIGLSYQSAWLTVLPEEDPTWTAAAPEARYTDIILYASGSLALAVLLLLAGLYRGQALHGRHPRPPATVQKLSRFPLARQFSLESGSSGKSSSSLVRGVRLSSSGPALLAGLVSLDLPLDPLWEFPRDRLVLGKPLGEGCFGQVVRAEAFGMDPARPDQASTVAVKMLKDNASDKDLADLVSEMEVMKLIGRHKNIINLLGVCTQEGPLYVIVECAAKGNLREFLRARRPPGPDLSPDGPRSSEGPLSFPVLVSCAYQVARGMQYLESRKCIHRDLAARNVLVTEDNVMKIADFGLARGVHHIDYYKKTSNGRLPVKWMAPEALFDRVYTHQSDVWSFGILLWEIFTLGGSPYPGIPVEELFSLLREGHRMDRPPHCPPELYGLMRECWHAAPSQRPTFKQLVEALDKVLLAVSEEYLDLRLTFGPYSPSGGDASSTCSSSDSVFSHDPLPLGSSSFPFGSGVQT
Sequence of CSK (P41240 whole entry): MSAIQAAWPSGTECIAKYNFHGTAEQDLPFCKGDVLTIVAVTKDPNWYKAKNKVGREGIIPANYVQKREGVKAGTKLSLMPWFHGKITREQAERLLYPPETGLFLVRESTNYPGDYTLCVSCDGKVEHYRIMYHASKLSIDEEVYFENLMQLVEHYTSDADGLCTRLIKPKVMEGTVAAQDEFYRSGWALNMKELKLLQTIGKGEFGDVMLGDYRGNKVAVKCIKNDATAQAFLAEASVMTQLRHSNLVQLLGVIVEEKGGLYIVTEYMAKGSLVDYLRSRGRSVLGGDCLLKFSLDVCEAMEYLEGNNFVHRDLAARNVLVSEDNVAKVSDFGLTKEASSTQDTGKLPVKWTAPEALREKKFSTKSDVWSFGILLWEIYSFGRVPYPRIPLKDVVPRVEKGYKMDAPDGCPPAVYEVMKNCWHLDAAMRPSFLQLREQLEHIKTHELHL

Row | Structure (SMILES) | inhibition at 1 µM (EPHA1) [%] | inhibition at 1 µM (FGFR4) [%] | inhibition at 1 µM (ITK) [%] | inhibition at 1 µM (AURKC (Aurora C)) [%] | inhibition at 1 µM (CSK) [%]
1 | COc1cc2nccc(Oc3ccc(NC(=O)C4(C(=O)Nc5ccc(F)cc5)CC4)cc3)c2cc1OC [Cabozantinib, reference compound] | 74 | -2 | 15 | 59 | 49
2 | COc1cc2nccc(Oc3ccc(NC(=O)C4(NC(=O)c5ccc(F)cc5)CC4)cc3F)c2cc1OC [Cbo-02, N-(1-((4-((6,7-diMethoxyquinolin-4-yl)oxy)-3-fluorophenyl)carbamoyl)cyclopropyl)-4-fluorobenzamide] | 29 | 0 | 8 | 74 | 87
3 | COc1cc2nccc(Oc3ccc(NC(=O)C4(NC(=O)c5ccc(F)cc5)CC4)cc3F)c2cc1Oc1ccc(N)cc1F [Cbo-10] | 84 | 1 | 25 | 63 | 97
4 | COc1cc2nccc(Oc3ccc(NC(=O)C4(NC(=O)c5ccc(F)cc5)CC4)cc3F)c2cc1Oc1c(F)cc(N)cc1F [Cbo-14] | 80 | -1 | 28 | 59 | 97
5 | COc1cc2nccc(Oc3ccc(NC(=O)C4(C(=O)Nc5ccc(F)cc5)CC4)cc3F)c2cc1Oc1ccc(N)cc1F [Cbo-23] | 96 | 13 | 54 | 41 | 66

Source: US20250120967A1, “TYROSINE KINASES INHIBITORS AND USES THEREOF” (GREAT NOVEL THERAPEUTICS BIOTECH & MEDICALS CORPORATION, priority 2023, published 2025)
